PubChem BioAssay (NCI)
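Grown in 96-well plates, cells were treated for 48 hours with each compound at five concentrations. Insufficient inhibition: endpoint recorded as highest concentration tested. At the TGI there is no net growth.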

Columns and labels:
Experiment in all cases: inhibition of tumour cell growth, NCI panel, 48 h
[1] = test system: COLO 205 colon
[2] = test system: HL-60(TB) leukemia
[3] = test system: MCF7 breast
[4] = test system: OVCAR-4 ovarian
[5] = test system: SK-MEL-5 melanoma
[6] = test system: IGROV1 ovarian
[7] = test system: 786-0 renal
[8] = test system: DU-145 prostate
[9] = test system: OVCAR-3 ovarian
[10] = test system: A549 NSCLC
[11] = test system: NCI-H522 lung
[12] = test system: NCI/ADR-RES ovarian
[13] = test system: UACC-62 melanoma
[14] = test system: SF-539 CNS
[15] = test system: RPMI-8226 leukemia
[16] = test system: TK-10 renal
[17] = test system: MDA-MB-231 breast
[18] = test system: OVCAR-8 ovarian
[19] = test system: HCC-2998 colon
[20] = test system: RXF 393 renal

| Structure (SMILES) | TGI [1] [µM] | TGI [2] [µM] | TGI [3] [µM] | TGI [4] [µM] | TGI [5] [µM] | TGI [6] [µM] | TGI [7] [µM] | TGI [8] [µM] | TGI [9] [µM] | TGI [10] [µM] | TGI [11] [µM] | TGI [12] [µM] | TGI [13] [µM] | TGI [14] [µM] | TGI [15] [µM] | TGI [16] [µM] | TGI [17] [µM] | TGI [18] [µM] | TGI [19] [µM] | TGI [20] [µM] |
| --- | --- | --- | --- | --- | --- | --- | --- | --- | --- | --- | --- | --- | --- | --- | --- | --- | --- | --- | --- | --- |
| C=C(CCOC)CCC1CCCCC(=C)[C@H]1OC(C)=O (some centres undefined) | > 100 | > 100 | > 100 | > 100 | > 100 | > 100 | > 100 | > 100 | > 100 | > 100 | > 100 | > 100 | > 100 | > 100 | > 100 | > 100 | > 100 | > 100 | – | – |
| CC12O[C@]3([C@H](C(=O)N4CCOC43C)[C@H]1Cl)[C@H]1O[C@H]12 (some centres undefined) | 91.9 | > 100 | > 100 | > 100 | > 100 | > 100 | > 100 | > 100 | > 100 | > 100 | > 100 | > 100 | > 100 | > 100 | > 100 | > 100 | > 100 | > 100 | > 100 | – |
| COc1ccc(OC)c(-c2nc3n(c2/C=C2/C(=O)Nc4ccccc42)CCS3)c1 | > 100 | > 100 | > 100 | > 100 | > 100 | > 100 | > 100 | > 100 | > 100 | > 100 | > 100 | > 100 | > 100 | > 100 | > 100 | > 100 | 92.3 | > 100 | – | 81.3 |
| O=C(O)c1n[nH][nH]c1=S | > 100 | > 100 | > 100 | > 100 | > 100 | > 100 | > 100 | > 100 | > 100 | > 100 | > 100 | > 100 | > 100 | > 100 | > 100 | – | > 100 | > 100 | > 100 | > 100 |
| Cc1ccc(Cc2n[nH]c(=O)n2Nc2ccccc2)cc1 | > 100 | > 100 | > 100 | > 100 | > 100 | > 100 | > 100 | > 100 | > 100 | > 100 | > 100 | > 100 | > 100 | > 100 | > 100 | > 100 | > 100 | > 100 | > 100 | – |
| Cc1ccc(S(=O)(=O)N2CCC(=O)c3cc(Br)ccc32)cc1 | 31.3 | – | > 49.1 | > 73.9 | 21.7 | > 100 | > 67.2 | > 100 | 61 | 32.1 | > 55.6 | 58.9 | 18.3 | 25.3 | 76.4 | 54.4 | > 54.5 | > 100 | > 54.1 | 53.6 |
| COC(=O)C1CC2CCC1(O[Si](C(C)C)(C(C)C)C(C)C)C(O)C2 (centres undefined) | 71.2 | > 100 | 28.4 | > 100 | 61.7 | 94 | 31.5 | 34.9 | 39.3 | 33.4 | 44.7 | > 100 | > 100 | – | 40.7 | – | 38.9 | 28.1 | 46 | 28.8 |
| CN1CCc2c3n(c4cc(Br)ccc24)[C@H](O)CCCC31 (some centres undefined) | 3.24 | 4.15 | 3.24 | > 7.44 | > 8.72 | > 10 | 3.08 | > 10 | > 10 | > 10 | 3.01 | > 10 | – | 3.5 | 5.36 | > 10 | 4.38 | 3.43 | 3.16 | 7.74 |
| CC(=O)OC/C=C/[C@H](O[Si](C)(C)C(C)(C)C)[C@@H](O)/C=C/COC(C)=O | > 100 | – | > 100 | > 100 | > 100 | > 100 | > 100 | > 100 | > 100 | > 100 | > 100 | > 100 | > 100 | > 100 | 43.7 | > 100 | > 100 | > 100 | > 100 | > 100 |
| OC1c2ccccc2CC12Cc1ccccc1C2 (centres undefined) | > 100 | > 100 | > 100 | > 100 | 49.6 | > 100 | > 100 | > 100 | > 100 | > 100 | > 100 | > 100 | – | > 100 | > 100 | > 100 | > 100 | > 100 | > 100 | > 100 |
| COC(=O)C(Cc1ccccc1)NP(=O)(O)OCC1OC(n2cc(Br)c(=O)[nH]c2=O)CC1O (centres undefined) | > 100 | > 100 | > 100 | > 100 | > 100 | > 100 | > 100 | > 100 | > 100 | > 100 | > 100 | > 100 | > 100 | > 100 | – | > 100 | > 100 | > 100 | > 100 | > 100 |
| O=C(O)Cc1c(-c2ccc([N+](=O)[O-])cc2)c(=O)oc2cc(O)ccc12 | > 100 | 39.4 | 75.7 | – | 33.3 | > 100 | > 100 | > 100 | 46.2 | > 100 | 91.3 | 54.6 | > 100 | 82 | 61.7 | > 100 | > 100 | 74.1 | 55.5 | > 100 |
| CC1=NN(c2cccc(Cl)c2)C(=N/c2nc3ccccc3s2)/C1=C\c1ccc(Cl)cc1 | – | 54.5 | 65.3 | – | 32 | 33.1 | 34 | > 100 | 52.5 | – | 35.7 | 50.7 | – | 36.4 | > 100 | 64.3 | 49.2 | 39.8 | 31 | 42.1 |
| O=S1(=O)OCCOS(=O)(=O)C1S(=O)(=O)c1ccc2ccccc2c1 | > 100 | > 100 | > 100 | > 100 | > 100 | > 100 | > 100 | > 100 | > 100 | > 100 | – | > 100 | – | – | > 100 | > 100 | > 100 | > 100 | > 100 | – |
| CCc1cccc(C(C)(C)C)c1NC(=S)N/C=C(/C#N)C(N)=O | > 100 | > 100 | > 100 | > 100 | > 100 | > 100 | > 100 | > 100 | > 100 | > 100 | > 100 | > 100 | > 100 | > 100 | > 100 | – | > 100 | > 100 | > 100 | > 100 |
| Cc1ccc2nc(Cl)c(/C=N/N3C(=O)/C(=C/c4cccc([N+](=O)[O-])c4)N=C3c3ccccc3)cc2c1 | > 100 | > 100 | 93.7 | > 100 | > 100 | > 100 | > 100 | > 100 | > 100 | > 100 | – | > 100 | > 100 | > 100 | > 100 | > 100 | > 100 | > 100 | > 100 | – |
| COc1ccc(/C=C2\CCC(CNc3ccc(S(N)(=O)=O)cc3)C2=O)cc1 (centres undefined) | 34.4 | 7.73 | 14.7 | > 81.2 | 31.8 | 43.4 | 11.2 | > 88.1 | 22.7 | > 100 | 10.6 | > 100 | 50.6 | > 59.2 | – | 34.9 | 35.5 | 35.4 | > 100 | 35.3 |
| COc1c2cc(C(C)(C)C)cc1Cc1cccc(c1OCc1cccc([N+](=O)[O-])c1)Cc1cc(C(C)(C)C)cc(c1OC)Cc1cccc(c1OCc1cccc([N+](=O)[O-])c1)Cc1cc(C(C)(C)C)cc(c1OC)Cc1cccc(c1OCc1cccc([N+](=O)[O-])c1)C2 | > 50 | > 50 | > 50 | – | > 50 | > 50 | > 50 | > 50 | > 50 | > 50 | > 50 | > 50 | > 50 | > 50 | > 50 | – | > 50 | > 50 | > 50 | > 50 |
| COC(=O)C1=C(C)C(=O)[C@]23C(CCCC[C@H]12)C(=O)[C@H](C(=O)OC)C3C (some centres undefined) | > 100 | > 100 | > 100 | > 100 | – | > 100 | > 100 | > 100 | > 100 | > 100 | > 100 | > 100 | > 100 | > 100 | – | > 100 | > 100 | > 100 | > 100 | – |
| CC(C)Oc1c(O)c2c3c(oc(=O)n3C=CC2c2ccccc2)c1OC(C)C (centres undefined) | 60.1 | 91.4 | > 100 | > 100 | > 100 | 83.1 | > 100 | > 100 | 80.5 | 92.1 | – | > 100 | – | 43.1 | – | 68.2 | > 100 | > 100 | 35.3 | – |
| C=CCOc1cc(NC(=S)c2ccoc2C)ccc1OC | > 100 | > 100 | > 100 | > 100 | > 100 | > 100 | > 100 | > 100 | > 100 | > 100 | > 100 | > 100 | > 100 | > 100 | > 100 | – | > 100 | > 100 | > 100 | – |
| O=C1/C(=c2\s/c(=C\c3ccccc3)c(=O)n2-c2ccccc2)SC(=S)N1c1ccccc1 | > 100 | > 100 | > 100 | > 100 | > 100 | 87.2 | > 100 | > 100 | 88.8 | > 100 | – | 96.8 | > 100 | 55.6 | > 100 | > 100 | 57.1 | > 100 | > 100 | > 100 |
| COC(=O)/C=C\COCC1C2CCC(=O)C21 (centres undefined) | > 25 | – | > 25 | > 25 | > 25 | > 25 | > 25 | > 25 | > 25 | > 25 | 7.83 | > 25 | > 25 | 19.4 | > 25 | > 25 | > 25 | > 25 | > 25 | > 25 |
| Fc1ccc(Oc2nc3ccc(C(F)(F)F)cc3nc2-c2ccccc2)cc1 | > 100 | > 100 | > 100 | > 100 | > 100 | > 100 | > 100 | > 100 | > 100 | > 100 | > 100 | > 100 | > 100 | > 100 | – | > 100 | > 100 | > 100 | 35.5 | > 100 |
| C/C(=C(/C)c1ccc(O)cc1)c1ccc(O)cc1 | > 100 | 81.4 | > 100 | – | 50 | > 100 | > 100 | > 100 | > 100 | > 100 | > 100 | > 100 | 83.3 | > 100 | 71.6 | > 100 | > 100 | > 100 | > 100 | > 100 |
